Results: PMC7243443 (Journal of natural products, 2020)

Key:
[1] = system: Na^+/K^+-ATPase (adenosine 5′-triphosphatase from porcine cerebral cortex); assay: Na+/K+-ATPase activity assay; format: biochemical; conditions: 7: at concentrations less than 100 μM
[2] = system: small panel of human cancer cell lines; conditions: read-out: IC50, cytotoxicity against a small panel of human cancer cell lines; cited from earlier work
ipsilateral kidney = conditions: 12–27 kg female dogs, renal-artery infusion, 0.05–0.08 mg/kg; cited from earlier work
[3] = system: glucose uptake in H1299 human lung cancer cells; assay: Glucose uptake assay; format: cell-based; conditions: 30 μM, 15 min

In the case of `C[C@H]1O[C@@H](O[C@H]2[C@@H](O)C[C@H](O[C@H]3[C@@H](O)C[C@H](O[C@H]4CC[C@@]5(C)[C@H](CC[C@@H]6[C@@H]5C[C@@H](O)[C@]5(C)[C@@H](C7=CC(=O)OC7)CC[C@]65O)C4)O[C@@H]3C)O[C@@H]2C)C[C@H](O)[C@@H]1O` [compound 1, (+)-Digoxin], the “inhibition of Na+/K+-ATPase activity (in words)” value [1] is given as “inhibited Na^+/K^+-ATPase activity in a concentration-dependent manner”, the IC50 [2] is given as 40 to 200 nM and the “excretion of Ca2+, Mg2+, and PO4 3- by the ipsilateral kidney (in words)” value (ipsilateral kidney) is given as “enhanced”. The “maximal transport of glucose (in words)” value (ipsilateral kidney) was “no change in the maximal transport of glucose”, the “inhibition of glucose uptake / glucose transport (in words)” value [3] was “did not inhibit glucose uptake” and the “inhibition of glucose uptake / glucose transport (in words)” value ([3]; listed as (+)-digoxin) was “did not inhibit glucose transport”.
